In US10286504B2, “Synthesis of paracetamol (acetaminophen) from biomass-derived p-hydroxybenzamide” (Wisconsin Alumni Research Foundation, priority 2017, dated 2019):
In brackets after ≈: the same amount, converted by molar mass.

Test: solubility of acetaminophen in recrystallisation solvent (50% water and 50% methanol)
Assay type: physicochemical
Details: aqueous with cosolvent or surfactant or cyclodextrin; solvent mixture of 50% water and 50% methanol by volume, heated to near boiling
Procedure: Heat the reaction mixture at about 115° C. with stirring for about 10 minutes to complete the reaction. Once complete, cool the mixture thoroughly in an ice bath for 15-20 minutes and collect the crystals by vacuum filtration on a Hirsch funnel. To decolorize the crude product, dissolve 0.2 g of sodium dithionite (sodium hydrosulfite) in 1.5 mL of water in a 5-mL conical vial. Add the crude acetaminophen to the vial. Heat the mixture at about 100° C. for 15 minutes, with occasional stirring. Cool the mixture to precipitate the decolorized acetaminophen. To purify the decolorized product, dissolve the material in a solvent mixture composed of 50% water and 50% methanol by volume, heated to boiling. The solubility of acetaminophen in the near-boiling solvent is about 0.2 g/mL. Cool the solution to precipitate the acetaminophen.

solubility: ~200 mg/mL (≈ 1320 mM)
Structure (SMILES): CC(=O)Nc1ccc(O)cc1 [acetaminophen, N-acetyl-p-aminophenol]
